Our source for the IC50 values is US20230066011A1, “PYRROLOPYRIMIDINE DERIVATIVE, AND PHARMACEUTICAL COMPOSITION FOR PREVENTING OR TREATING PROTEIN KINASE-RELATED DISEASE COMPRISING SAME AS ACTIVE INGREDIENT” (VORONOI CO., LTD., priority 2019, published 2023).

Each structure is given as a SMILES string.

One experiment addresses T1, human GST-CLK1 (Homo sapiens, UniProt P49759).
T1 construct: purified human GST-CLK1 (129-end, SignalChem) enzyme; purchased SignalChem
Put plainly: GST-CLK1 enzyme inhibition, ADP-Glo kinase assay. It is filed as biochemical. The note with it: ATP 10 μM, GST-CLK1 129-end. The procedure: (§1) To evaluate an inhibitory activity of the compound according to the present invention against LRRK2, LRRK2 (G2019S), DYRK1, CLK1, and TTK kinases, experiments were performed as follows.
(§2) Each of the Example compounds was reacted with a purified human GST-CLK1 (129-end, SignalChem) enzyme to evaluate an ability to inhibit an enzyme using a method as described below. A composition of 40 mM Tris-HCl (pH 7.4), 20 mM MgCl2, 0.5 mg/mL BSA, and 50 μM DTT was used as a reaction buffer, and all reactions of test substances were performed in the reaction buffer. In the test, purified ATP (10 μM) and a specific substrate solution were reacted with a human GST-CLK1 (129-end, 3 ng) enzyme at 25° C. for an hour, and the enzyme activities were then determined using an in vitro ADP-Glo™ kinase assay (Promega). An enzyme-activity reaction solution, an ADP-Glo reaction solution, and an enzyme-ability detection solution were reacted at a ratio of 2:2:1 to measure a degree of inhibition of the enzyme activity with luminescence. The degree of inhibition of the enzyme activity according to the treatment concentration of each of the compounds was calculated based on the fluorescence of the enzyme activity of the solvent control which was not treated with the compound. In this case, the concentration of each of the compounds inhibiting 50% of the enzyme activity was determined to be an IC50 (nM) value. The IC50 (nM) value of each of the compounds was determined from 3 sets of data, and calculated using Prism (Version 5.01; GraphPad) software.
On the technique in general: In ADP-Glo the light output rises with the ADP produced.

A further experiment concerns the target T2, human GST-DYRK1A (Homo sapiens, UniProt Q13627).
T2 construct: purified human GST-DYRK1A (full length, Thermo Scientifics) enzyme; purchased Thermo Scientifics
Put plainly: GST-DYRK1A enzyme inhibition, ADP-Glo kinase assay. The experiment is classed as biochemical. Particulars: ATP 10 μM, GST-DYRK1A full length, read-out: DYRK1 IC50. The protocol:
as §1
as §2, with “GST-DYRK1A (full length, Thermo Scientifics)” for “GST-CLK1 (129-end, SignalChem)”, “GST-DYRK1A (full length, 10” for “GST-CLK1 (129-end, 3”, “value, and the” for “value. The”

T1 sequence (P49759 129-484 limits assumed): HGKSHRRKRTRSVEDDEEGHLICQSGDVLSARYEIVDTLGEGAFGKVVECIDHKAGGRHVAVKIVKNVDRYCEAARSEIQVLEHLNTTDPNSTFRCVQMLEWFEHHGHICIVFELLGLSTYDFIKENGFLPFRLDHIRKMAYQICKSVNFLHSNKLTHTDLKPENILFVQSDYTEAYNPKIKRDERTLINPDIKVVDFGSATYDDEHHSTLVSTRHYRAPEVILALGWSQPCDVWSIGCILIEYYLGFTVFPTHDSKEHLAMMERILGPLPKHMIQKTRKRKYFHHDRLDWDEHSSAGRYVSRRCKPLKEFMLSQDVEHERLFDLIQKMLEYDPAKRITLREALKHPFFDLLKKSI

One may read the IC50 as the point on the concentration scale where inhibition reaches its midpoint. `CCNc1nc(Nc2ccc(C(=O)N3CCN(C4COC4)CC3)c3c2OCCO3)nc2[nH]cc(C#N)c12` [Example 265, 4-(ethylamino)-2-((8-(4-(oxetan-3-yl)piperazine-1-carbonyl)-2,3-dihydrobenzo[b][1,4]dioxin-5-yl)amino)-7H-pyrrolo[2,3-d]pyrimidine-5-carbonitrile]: the IC50 at human GST-CLK1 and on human GST-DYRK1A was 101 to 300 nM each time.
`CC[C@@H](C)Nc1nc(Nc2ccc(P(C)(C)=O)cc2OC)nc2[nH]cc(C#N)c12` [Example 266, (R)-4-(sec-butylamino)-2-((4-(dimethylphosphoryl)-2-methoxyphenyl)amino)-7H-pyrrolo[2,3-d]pyrimidine-5-carbonitrile]: the IC50 is less than 100 nM at human GST-CLK1 and 101 to 300 nM at human GST-DYRK1A.
For `CC[C@H](C)Nc1nc(Nc2ccc(P(C)(C)=O)cc2OC)nc2[nH]cc(C#N)c12` [Example 267, (S)-4-(sec-butylamino)-2-((4-(dimethylphosphoryl)-2-methoxyphenyl)amino)-7H-pyrrolo[2,3-d]pyrimidine-5-carbonitrile], in that order: 301 to 1000 nM and 301 to 1000 nM.
For `COc1cc(P(C)(C)=O)ccc1Nc1nc(NC2CCC2)c2c(C#N)c[nH]c2n1` [Example 268, 4-(cyclobutylamino)-2-((4-(dimethylphosphoryl)-2-methoxyphenyl)amino)-7H-pyrrolo[2,3-d]pyrimidine-5-carbonitrile], in that order: 101 to 300 nM and 301 to 1000 nM.
Consider `COc1cc(P(C)(C)=O)ccc1Nc1nc(NC2CCCC2)c2c(C#N)c[nH]c2n1` [Example 269, 4-(cyclopentylamino)-2-((4-(dimethylphosphoryl)-2-methoxyphenyl)amino)-7H-pyrrolo[2,3-d]pyrimidine-5-carbonitrile], for which the results for the IC50 at human GST-CLK1 and at human GST-DYRK1A were 101 to 300 nM and 301 to 1000 nM, respectively.
For `COc1cc(P(C)(C)=O)ccc1Nc1nc(N[C@@H]2CCOC2)c2c(C#N)c[nH]c2n1` [Example 270, (R)-2-((4-(dimethylphosphoryl)-2-methoxyphenyl)amino)-4-((tetrahydrofuran-3-yl)amino)-7H-pyrrolo[2,3-d]pyrimidine-5-carbonitrile], in that order: 301 to 1000 nM and 301 to 1000 nM.
With `COc1cc(P(C)(C)=O)ccc1Nc1nc(N[C@H]2CCOC2)c2c(C#N)c[nH]c2n1` [Example 271, (S)-2-((4-(dimethylphosphoryl)-2-methoxyphenyl)amino)-4-((tetrahydrofuran-3-yl)amino)-7H-pyrrolo[2,3-d]pyrimidine-5-carbonitrile], the results for the IC50 at human GST-CLK1 and on human GST-DYRK1A were 101 to 300 nM and 301 to 1000 nM, respectively.
For `COc1cc(P(C)(C)=O)ccc1Nc1nc(NC2CCOCC2)c2c(C#N)c[nH]c2n1` [Example 272, 2-((4-(dimethylphosphoryl)-2-methoxyphenyl)amino)-4-((tetrahydro-2H-pyran-4-yl)amino)-7H-pyrrolo[2,3-d]pyrimidine-5-carbonitrile] the same measures were 301 to 1000 nM and 301 to 1000 nM.
In the case of `COc1cc(P(C)(C)=O)ccc1Nc1nc(NCC2CC2)c2c(C#N)c[nH]c2n1` [Example 273, 4-((cyclopropylmethyl)amino)-2-((4-(dimethylphosphoryl)-2-methoxyphenyl)amino)-7H-pyrrolo[2,3-d]pyrimidine-5-carbonitrile], the IC50 against human GST-CLK1 fell in the range of 101 to 300 nM; at human GST-DYRK1A, 301 to 1000 nM.
For `COc1cc(P(C)(C)=O)ccc1Nc1nc(NCC2CCCC2)c2c(C#N)c[nH]c2n1` [Example 274, 4-((cyclopentylmethyl)amino)-2-((4-(dimethylphosphoryl)-2-methoxyphenyl)amino)-7H-pyrrolo[2,3-d]pyrimidine-5-carbonitrile], in that order: 301 to 1000 nM and 301 to 1000 nM.
For `CCCCNc1nc(Nc2ccc(P(C)(C)=O)cc2OC)nc2[nH]cc(C#N)c12` [Example 275, 4-(butylamino)-2-((4-(dimethylphosphoryl)-2-methoxyphenyl)amino)-7H-pyrrolo[2,3-d]pyrimidine-5-carbonitrile], in that order: 101 to 300 nM and 301 to 1000 nM.
As to `COc1cc(P(C)(C)=O)ccc1Nc1nc(NC2COC2)c2c(C#N)c[nH]c2n1` [Example 276, 2-((4-(dimethylphosphoryl)-2-methoxyphenyl)amino)-4-(oxetan-3-ylamino)-7H-pyrrolo[2,3-d]pyrimidine-5-carbonitrile], the IC50 against human GST-CLK1 and on human GST-DYRK1A was 301 to 1000 nM in each case.
For the molecule `CNc1nc(Nc2ccc(P3(=O)CCN(C4CC4)CC3)cc2OC)nc2[nH]cc(C#N)c12` [Example 279, 2-((4-(1-cyclopropyl-4-oxido-1,4-azaphosphinan-4-yl)-2-methoxyphenyl)amino)-4-(methylamino)-7H-pyrrolo[2,3-d]pyrimidine-5-carbonitrile], the IC50 against human GST-CLK1 and at human GST-DYRK1A was 301 to 1000 nM each time.
Take `CNc1nc(Nc2ccc(C(=O)N3CCN(C4COC4)CC3)c3c2OCCO3)nc2[nH]cc(C#N)c12` [Example 280, 4-(methylamino)-2-((8-(4-(oxetan-3-yl)piperazine-1-carbonyl)-2,3-dihydrobenzo[b][1,4]dioxin-5-yl)amino)-7H-pyrrolo[2,3-d]pyrimidine-5-carbonitrile]: the IC50 against human GST-CLK1 was less than 100 nM; on human GST-DYRK1A it was 101 to 300 nM.
For `CCNc1nc(Nc2ccc(C(=O)N3CCN(C4COC4)CC3)c3c2OCCO3)nc2[nH]cc(C#N)c12` [Example 281, 4-(ethylamino)-2-((8-(4-(oxetan-3-yl)piperazine-1-carobnyl)-2,3-dihydrobenzo[b][1,4]dioxin-5-yl)amino)-7H-pyrrolo[2,3-d]pyrimidine-5-carbonitrile] the same measures were less than 100 nM and 101 to 300 nM.
For `CCCNc1nc(Nc2ccc(P3(=O)CCN(C4CC4)CC3)cc2OC)nc2[nH]cc(C#N)c12` [Example 282, 2-((4-(1-cyclopropyl-4-oxido-1,4-azaphosphinan-4-yl)-2-methoxyphenyl)amino)-4-(propylamino)-7H-pyrrolo[2,3-d]pyrimidine-5-carbonitrile], in that order: 101 to 300 nM and 301 to 1000 nM.
Regarding `CCCNc1nc(Nc2ccc(P3(=O)CCN(C4COC4)CC3)cc2OC)nc2[nH]cc(C#N)c12` [Example 283, 2-((2-methoxy-4-(1-(oxetan-3-yl)-4-oxido-1,4-azaphosphinan-4-yl)phenyl)amino)-4-(propylamino)-7H-pyrrolo[2,3-d]pyrimidine-5-carbonitrile], the concentration for half-maximal inhibition (IC50) against human GST-CLK1 lay in the range of 101 to 300 nM; on human GST-DYRK1A, 301 to 1000 nM.
For `CCCNc1nc(Nc2ccc(C(=O)N3CCN(C4COC4)CC3)c3c2OCCO3)nc2[nH]cc(C#N)c12` [Example 284, 2-((8-(4-(oxetan-3-yl)piperazine-1-carbonyl)-2,3-dihydrobenzo[b] [1,4]dioxin-5-yl)amino)-4-(propylamino)-7H-pyrrolo[2,3-d]pyrimidine-5-carbonitrile] the same measures were less than 100 nM and 301 to 1000 nM.
As for `COc1cc(P2(=O)CCN(C3CC3)CC2)ccc1Nc1nc(NC2CC2)c2c(C#N)c[nH]c2n1` [Example 285, 2-((4-(1-cyclopropyl-4-oxido-1,4-azaphosphinan-4-yl)-2-methoxyphenyl)a-mino)-4-(cyclo-propylamino)-7H-pyrrolo[2,3-d]pyrimidine-5-carbonitrile], the results for the IC50 on human GST-CLK1 and on human GST-DYRK1A were 101 to 300 nM and 301 to 1000 nM, respectively.
For `COc1cc(P2(=O)CCN(C3COC3)CC2)ccc1Nc1nc(NC2CC2)c2c(C#N)c[nH]c2n1` [Example 286, 4-(cyclo-propylamino)-2-((2-methoxy-4-(1-(oxetna-3-yl)-4-oxido-1,4-azaphosphinan-4-yl)phenyl)amino)-7H-pyrrolo[2,3-d]pyrimidine-5-carbonitrile] the same measures were less than 100 nM and 301 to 1000 nM.
`N#Cc1c[nH]c2nc(Nc3ccc(C(=O)N4CCN(C5COC5)CC4)c4c3OCCO4)nc(NC3CC3)c12` [Example 287, 4-(cyclo-propylamino)-2-((8-(4-(oxetan-3-yl)piperazine-1-carbonyl)-2,3-dihydrobenzo[b] [1,4]dioxin-5-yl)amino)-7H-pyrrolo[2,3-d]pyrimidine-5-carbonitrile]: the results for the IC50 on human GST-CLK1 and on human GST-DYRK1A were less than 100 nM and 301 to 1000 nM, respectively.
